The subject of one assay is S. aureus Smith. The assay is described as follows: In vitro antibacterial activity (minimal inhibitory concentration, agar dilution). It is filed as cell-based. Conditions: Staphylococcus aureus. On the procedure: (§1) The compounds have shown activity in vitro against one or more of the following strains of bacteria: S. aureus Smith, S. aureus 53-180, N. catarrhalis 8193, E. coli 9637, S. paratyphi 11737, K. pneumoniae 10031, or P. vulgaris 6896.
(§2) A stock solution or suspension of the test compound at a concentration of 2500 μg/ml. is prepared utilizing a suitable solvent or medium such as aqueous sodium hydroxide, aqueous lactic acid, methyl cellosolve, dimethylsulfoxide, dimethylacetamide, ethylene glycol, dimethylformamide, formamide, propylene glycol, acetone or methanol. Two-fold dilutions are made by adding appropriate amounts of sterile water to the solution or suspension of the test substance. One ml. quantities of each dilution are incorporated into Wellcotest Sensitivity Test Agar fortified with 5% hemolyzed horse blood (9 ml. vol.) in sterile Petri dishes to give plates containing varying concentrations of the test compound. The hardened surfaces of each plate are incubated with the test organism, and the plates are incubated for 18 hours at 35° C.
In general terms: In agar dilution, organisms are placed on agar that contains the substance at set levels.

In a further assay the test system is S. paratyphi 11737. The assay is described as above. It is filed as cell-based. Conditions: Salmonella enterica, Wellcotest Sensitivity Test Agar with 5% hemolyzed horse blood, 18 hours at 35° C. The protocol:
as §1, §2

The next assay relates to S. aureus 53-180. The assay is described as above. It is filed as cell-based. The protocol: as §1, §2
In a further assay the test system is K. pneumoniae 10031. The assay is described as above. It is filed as cell-based. On the procedure: as §1, §2
The subject of the next assay is N. catarrhalis 8193. The description is as above. It is filed as cell-based. Particulars: Wellcotest Sensitivity Test Agar with 5% hemolyzed horse blood, 18 hours at 35° C. The protocol:
as §1, §2

The subject of another assay is E. coli 9637. The assay is described as above. It is filed as cell-based. The protocol:
as §1, §2

In another assay the test system is P. vulgaris 6896. The description is as above. It is filed as cell-based. On the procedure: as §1, §2
Assay [1] deals with Staphylococcus aureus CHP. Nature of the assay: In vivo antibacterial synergism with sulfomethoxazole (mouse protection test). Conditions: CD-1 mice; for ED50: po, single dose, alone, treated immediately after infecting, read-out: PD50. The protocol:
(§3) The test agent is weighed, suspended in 0.5% aqueous carboxymethyl cellulose, hemogenized (glass tissue grinder) and diluted according to the design of the experiment. Mice (male, 18±1 g., CD-1 strain) are pre-weighed, pooled, infected at random intraperitoneally with a 0.5 ml. standardized suspension (LD95 ±5%) of the bacterial organism in 5% gastric mucin and treated at random with single doses of the test agents either at the time of infection or six hours after infecting. The treated groups consist of ten mice per dosage level. Deaths are recorded daily for 14 days and the PD50 (mice are treated at time of infection) and CD50 (mice are treated six hours after infecting) values are calculated by the method of Reed and Muench [Amer. J. Hyg., 27, (1938)].

A further assay concerns Escherichia coli (E-2). Described as above. Particulars: E. coli (E-2), CD-1 mice; for ED50: Escherichia coli, po, single dose, alone, treated immediately after infecting, read-out: PD50. The protocol: as §3
For another assay, the system named is Escherichia coli (E-3). The description is as above. Particulars: E. coli (E-3), CD-1 mice; for ED50: Escherichia coli, po, single dose, alone, treated immediately after infecting, read-out: PD50. The protocol: as §3
For the next assay, the system named is bacterial infections. Nature of the assay: Potentiation of sulfa drug against bacterial infections in mice, oral. Conditions: oral route of administration in mice. It is filed as in vivo, mouse. On the procedure: The invention also provides compounds which will potentiate the antibacterial effects of sulfa drugs.
as §3

Where [2] appears, read: Staphylococcus aureus, 53180, 18 h.
The mark [3] stands for this setting: Klebsiella pneumoniae, 10031, 18 h.
Setting [4] is: Escherichia coli, E. coli 9637, Wellcotest Sensitivity Test Agar with 5% hemolyzed horse blood, 18 hours at 35° C., read-out: MIC.
[5] abbreviates: S. aureus Smith, Wellcotest Sensitivity Test Agar with 5% hemolyzed horse blood, 18 hours at 35° C., read-out: MIC.
[6] abbreviates: Proteus vulgaris, P. vulgaris 6896, Wellcotest Sensitivity Test Agar with 5% hemolyzed horse blood, 18 hours at 35° C., read-out: MIC.
Setting [7] is: Staphylococcus aureus, 53180, S. aureus 53-180, Wellcotest Sensitivity Test Agar with 5% hemolyzed horse blood, 18 hours at 35° C., read-out: MIC.
[8] abbreviates: Klebsiella pneumoniae, K. pneumoniae 10031, Wellcotest Sensitivity Test Agar with 5% hemolyzed horse blood, 18 hours at 35° C., read-out: MIC.
Setting [9] is: p.o., Cpd. dose in combination with SM.
The mark [10] stands for this setting: p.o., SM dose in combination with Cpd.

The record followed here is patent US4208520A, “7-(Substituted)-7H-pyrrolo[3,2-f]quinazoline-1,3-diamines” (American Home Products Corporation, priority 1978, dated 1980).

Molecules are shown by their SMILES. Converted amounts (≈) assume the structure as drawn. Read-outs that look alike come from different tables or passages of the source. Where only a bound is given, the exact number is not on record here.

A word on the MIC: it is the lowest concentration that inhibits growth of the organism. As to `Nc1nc(N)c2c(ccc3c2ccn3Cc2ccc(Cl)cc2Cl)n1` [Example 2, 7-[(2,4-Dichlorophenyl)methyl]-7H-pyrrolo[3,2-f]quinazoline-1,3-diamine], the MIC stood at 0.976 µg/mL (≈ 2.72 µM) in the assay on S. aureus Smith (18 h); 31.3 µg/mL (≈ 87.4 µM) against S. paratyphi 11737; 0.488 µg/mL (≈ 1.36 µM) against S. aureus 53-180 (setting [2]); 0.488 µg/mL (≈ 1.36 µM) against K. pneumoniae 10031 (setting [3]); 0.0038 µg/mL (≈ 0.0106 µM) against N. catarrhalis 8193; 3.9 µg/mL (≈ 10.9 µM) in the assay with E. coli 9637 (setting [4]).
For `CC(=O)c1cccc(Cn2ccc3c4c(N)nc(N)nc4ccc32)c1` [Example 3], the MIC amounted to 0.122 µg/mL (≈ 0.368 µM) with S. aureus Smith (setting [5]); 0.976 µg/mL (≈ 2.95 µM) with S. paratyphi 11737; 3.9 µg/mL (≈ 11.8 µM) in the assay with P. vulgaris 6896 (setting [6]); 0.061 µg/mL (≈ 0.184 µM) in the assay with S. aureus 53-180 (setting [7]); 0.031 µg/mL (≈ 0.0935 µM) with K. pneumoniae 10031 (setting [8]); 0.244 µg/mL (≈ 0.736 µM) in the assay with E. coli 9637 (setting [4]).
Turning to `COC(=O)c1cccc(Cn2ccc3c4c(N)nc(N)nc4ccc32)c1` [Example 4], the minimum inhibitory concentration (MIC) against S. aureus Smith (18 h) stood at 0.976 µg/mL (≈ 2.81 µM); in the assay with S. paratyphi 11737, 31.3 µg/mL (≈ 90.1 µM); in the assay on P. vulgaris 6896 (setting [6]), 125 µg/mL (≈ 360 µM); in the assay on S. aureus 53-180 (setting [7]) it was 0.122 µg/mL (≈ 0.351 µM); in the assay with K. pneumoniae 10031 (setting [8]), 0.244 µg/mL (≈ 0.702 µM); in the assay on E. coli 9637 (setting [4]), 1.95 µg/mL (≈ 5.61 µM).
On to `CC(C)OC(=O)c1ccc(Cn2ccc3c4c(N)nc(N)nc4ccc32)cc1` [Example 6], for which the MIC in the assay on S. aureus Smith (18 h) was found to be 0.488 µg/mL (≈ 1.3 µM); in the assay on S. paratyphi 11737 it was 62.5 µg/mL (≈ 166 µM); in the assay with P. vulgaris 6896 (setting [6]) it was 125 µg/mL (≈ 333 µM); with S. aureus 53-180 (setting [2]) it was 0.488 µg/mL (≈ 1.3 µM); against K. pneumoniae 10031 (setting [3]), 0.488 µg/mL (≈ 1.3 µM); against N. catarrhalis 8193, 0.122 µg/mL (≈ 0.325 µM). Further, the MIC in the assay on E. coli 9637 (setting [4]) stood at 15.6 µg/mL (≈ 41.6 µM).
Take `CCCC(C)OC(=O)c1ccc(Cn2ccc3c4c(N)nc(N)nc4ccc32)cc1` (stereo not drawn) [Example 7]: the MIC with S. aureus Smith (setting [5]) was 15.6 µg/mL (≈ 38.7 µM); in the assay on S. aureus 53-180 (setting [7]) it was 7.81 µg/mL (≈ 19.4 µM); with K. pneumoniae 10031 (setting [8]), 15.6 µg/mL (≈ 38.7 µM); in the assay on N. catarrhalis 8193 it was 7.81 µg/mL (≈ 19.4 µM).
Take `COC(=O)c1ccc(Cn2ccc3c4c(N)nc(N)nc4ccc32)cc1` [Example 8]: the MIC came out at 31.3 µg/mL (≈ 90.1 µM) against S. aureus Smith (18 h); 250 µg/mL (≈ 720 µM) in the assay on S. paratyphi 11737; 250 µg/mL (≈ 720 µM) against P. vulgaris 6896 (Proteus vulgaris, 6896, 18 h); 7.81 µg/mL (≈ 22.5 µM) against S. aureus 53-180 (setting [2]); 15.6 µg/mL (≈ 44.9 µM) in the assay on K. pneumoniae 10031 (setting [8]); 62.5 µg/mL (≈ 180 µM) in the assay on E. coli 9637 (Escherichia coli, 9637, 18 h).
Turning to `Nc1nc(N)c2c(ccc3c2ccn3Cc2ccc(O)cc2)n1` [Example 9, 7-[(4-Hydroxyphenyl)methyl]-7H-pyrrolo[3,2-f]quinazoline-1,3-diamine], the MIC against S. aureus Smith (18 h) was 0.488 µg/mL (≈ 1.6 µM); in the assay on S. paratyphi 11737, 3.9 µg/mL (≈ 12.8 µM); against P. vulgaris 6896 (Proteus vulgaris, 6896, 18 h), 250 µg/mL (≈ 819 µM); against S. aureus 53-180 (setting [2]), 0.488 µg/mL (≈ 1.6 µM); with K. pneumoniae 10031 (setting [8]), 0.244 µg/mL (≈ 0.799 µM); against E. coli 9637 (Escherichia coli, 9637, 18 h), 0.976 µg/mL (≈ 3.2 µM).
Take `Nc1nc(N)c2c(ccc3c2ccn3-c2ccncc2)n1` [Example 10, 7-(4-Pyridinyl)-7H-pyrrolo-[3,2-f]quinazoline-1,3-diamine]: the MIC in the assay with S. aureus Smith (setting [5]) was determined as 0.448 µg/mL (≈ 1.62 µM); against S. paratyphi 11737 it was 0.976 µg/mL (≈ 3.53 µM); with P. vulgaris 6896 (Proteus vulgaris, 6896, 18 h), 62.5 µg/mL (≈ 226 µM); in the assay with S. aureus 53-180 (setting [7]), 0.224 µg/mL (≈ 0.811 µM); against K. pneumoniae 10031 (setting [3]), 0.976 µg/mL (≈ 3.53 µM); against N. catarrhalis 8193 it was 0.0152 µg/mL (≈ 0.055 µM). Besides, the MIC in the assay on E. coli 9637 (setting [4]) was determined as 0.244 µg/mL (≈ 0.883 µM). The “PD50 of Cpd. in combination SM/Cpd.” value in [1] (setting [9]) worked out at 7.28 mg. per kg; with Escherichia coli (E-2) (setting [9]), 1.20 mg. per kg; in the assay with Escherichia coli (E-3) (setting [9]) it was 6.25 mg. per kg. The ED50 was over 400 mg/kg in assay [1], over 400 mg/kg in the assay on Escherichia coli (E-2) and 313 mg/kg in the assay with Escherichia coli (E-3). Further, in the assay with bacterial infections, the “synergistic effect with sulfamethoxazole against bacterial infections” value is reported as “gave a synergistic effect with sulfamethoxazole against bacterial infections”.
Turning to `Cc1ccnc(-n2ccc3c4c(N)nc(N)nc4ccc32)c1` [Example 11], the MIC with S. aureus Smith (18 h) turned out to be 3.9 µg/mL (≈ 13.4 µM); with S. paratyphi 11737 it was 7.81 µg/mL (≈ 26.9 µM); with P. vulgaris 6896 (setting [6]) it was 15.6 µg/mL (≈ 53.7 µM); against S. aureus 53-180 (setting [2]), 0.976 µg/mL (≈ 3.36 µM); in the assay on K. pneumoniae 10031 (setting [8]), 0.244 µg/mL (≈ 0.84 µM); against N. catarrhalis 8193 it was 0.0152 µg/mL (≈ 0.0524 µM). Further, in the assay with E. coli 9637 (setting [4]), the MIC came out at 3.9 µg/mL (≈ 13.4 µM).
With `Nc1nc(N)c2c(ccc3c2ccn3-c2ccc(C(F)(F)F)cc2)n1` [Example 12], the MIC in the assay on S. aureus Smith (18 h) turned out to be 31.3 µg/mL (≈ 91.2 µM); in the assay with S. aureus 53-180 (setting [2]), 31.3 µg/mL (≈ 91.2 µM); with K. pneumoniae 10031 (setting [8]), 3.9 µg/mL (≈ 11.4 µM); in the assay on E. coli 9637 (Escherichia coli, 9637, 18 h), 250 µg/mL (≈ 728 µM).
For `NC(=O)c1ccc(-n2ccc3c4c(N)nc(N)nc4ccc32)cc1` [Example 13], the minimal inhibitory concentration (MIC) amounted to 1.95 µg/mL (≈ 6.13 µM) with S. aureus Smith (setting [5]), 7.81 µg/mL (≈ 24.5 µM) in the assay with S. aureus 53-180 (setting [2]) and 0.976 µg/mL (≈ 3.07 µM) with K. pneumoniae 10031 (setting [8]).
For `Cc1cc(NS(=O)(=O)c2ccc(N)cc2)no1` [SM, sulfomethoxazole, reference compound], the “PD50 of SM in combination SM/Cpd.” value was 50 mg. per kg in assay [1] (setting [10]), 5.25 mg. per kg in the assay with Escherichia coli (E-2) (setting [10]) and 12.5 mg. per kg in the assay on Escherichia coli (E-3) (setting [10]). Further, the ED50 worked out at 259 mg/kg in assay [1], 25 mg/kg in the assay on Escherichia coli (E-2) and 28.1 mg/kg in the assay with Escherichia coli (E-3).
